Publication PMC6507131, “Evaluation of the novel liver micronucleus assay using formalin-fixed tissues” (Genes and Environment, 2019)
Entries after “also recorded” stand apart in the source; their conditions may differ. Counter-ions that a name gives are not always drawn.

Experiments:
[1] = tested on: hepatocytes of formalin-fixed liver tissues; settings: rat, in vivo; for RDLMN test result (liver micronucleus induction), formalin-fixed method: po
hepatocytes (liver) [2] = settings: rat, in vivo, cited from earlier work; for RDLMN test result (liver micronucleus induction), collagenase digestion method: po
liver [3] = settings: in vivo; cited from earlier work
hepatocytes (liver) [4] = test: Repeated-dose liver micronucleus (RDLMN) assay, collagenase digestion method; type: in vivo, rat; settings: comparison between the two methods
[5] = set-up: method as in PMID 15979392; settings: cited from earlier work
bone marrow = tested on: bone marrow; set-up: method as in PMID 9707102; settings: cited from earlier work
liver [6] = tested on: liver; set-up: method as in PMID 25892619, PMID 25892626; settings: previous study; cited from earlier work

SMILES	RDLMN test result (liver micronucleus induction), formalin-fixed method [1]	RDLMN test result (liver micronucleus induction), collagenase digestion method (hepatocytes (liver) [2])	Hepatocarcinogen / non-hepatocarcinogen classification (liver [3])	other results
CC(=O)Nc1ccc2c(c1)Cc1ccccc1-2 [2-AAF, 2-Acetylaminofluorene]	positive	positive	Hepatocarcinogen	
CC(C)[N+](=O)[O-] [2-NP, 2-Nitropropane]	positive	positive		
CCOC(=O)C(C)(C)Oc1ccc(Cl)cc1 [CFB, Clofibrate]			Hepatocarcinogen	
O.O=P1(N(CCCl)CCCl)NCCCO1 (stereo not shown) [CP, Cyclophosphamide H2O]	negative	negative	Non-hepatocarcinogen	
CN(C)c1ccc(N=Nc2ccccc2)cc1 [DAB, p-Dimethylaminoazobenzene]	positive	positive	Hepatocarcinogen	
CN(C)N=O [DMN, Dimethylnitrosoamine]	positive	positive	Hepatocarcinogen	Frequency of MNHEPs by the formalin-fixed method compared with the collagenase digestion method [1]: Relatively higher frequencies of MNHEPs
C[C@H]1C(=O)O[C@@H]2CCN3CC=C(COC(=O)[C@](C)(O)[C@]1(C)O)[C@H]23 [MCT, Monocrotaline]	positive	positive	Hepatocarcinogen	
COS(C)(=O)=O [MMS, Methyl methanesulfonate]	positive	positive	Non-hepatocarcinogen	
CN(C)CCN(Cc1cccs1)c1ccccn1 [MP, Methapyrilene HCl]			Hepatocarcinogen	
CCCN(CCC)N=O [NDPA, N-Nitrosodipropylamine]	positive	positive	Hepatocarcinogen	Frequency of MNHEPs by the formalin-fixed method compared with the collagenase digestion method [1]: Relatively higher frequencies of MNHEPs
O=NN1CCOCC1 [NMOR, N-Nitrosomorpholine]	positive	positive	Hepatocarcinogen	
O=NN1CCCC1 [NPYR, N-Nitrosopyrrolidine]			Hepatocarcinogen	Micronucleus induction by the collagenase digestion method compared with the formalin-fixed method (hepatocytes (liver) [4]): the same trend; also recorded: higher micronucleus induction
c1ccc2ncccc2c1 [QUN, Quinoline]	positive	positive		
Oc1ccc2ccccc2c1N=Nc1ccccc1 [Sudan I, Sudan I (C.I.solvent yellow 14)]	positive	negative	Hepatocarcinogen	in vitro chromosome aberration test result [5]: negative; short-term bone marrow micronucleus assay result (bone marrow): positive; Histopathological finding in the liver (liver [6]): remarkable HEP hypertrophy; Dose dependence of liver micronucleus induction, collagenase digestion method (hepatocytes (liver) [2]): a tendency, though slight, toward a dose-dependent increase; liver carcinogenicity (liver [3]): positive
CC(=N)S [TAA, Thioacetamide]	positive	negative	Hepatocarcinogen	Frequency of MNHEPs by the formalin-fixed method compared with the collagenase digestion method [1]: comparable
